Data from US8148373B2, “Compounds” (AstraZeneca AB, priority 2008, dated 2012).
Structures can show the parent of a compound that is named as a salt.

Experiments:
[1] = molecular target: T1, Adrenergic β2 (H292 cells) (Homo sapiens, UniProt P07550); test: Assay for Adrenergic β2 Mediated cAMP Production (concentration response, AlphaScreen cAMP detection); format: cell-based; details: for EC50: cAMP production, 60 minutes at room temperature, 300 μM rolipram, read-out: β2 pEC50 (converted); for β2 Intrinsic activity: fraction relative to the maximum activity determined for formoterol
T1 construct: endogenous in cells; host or cells: H292 cells
T1 sequence (P07550 whole entry): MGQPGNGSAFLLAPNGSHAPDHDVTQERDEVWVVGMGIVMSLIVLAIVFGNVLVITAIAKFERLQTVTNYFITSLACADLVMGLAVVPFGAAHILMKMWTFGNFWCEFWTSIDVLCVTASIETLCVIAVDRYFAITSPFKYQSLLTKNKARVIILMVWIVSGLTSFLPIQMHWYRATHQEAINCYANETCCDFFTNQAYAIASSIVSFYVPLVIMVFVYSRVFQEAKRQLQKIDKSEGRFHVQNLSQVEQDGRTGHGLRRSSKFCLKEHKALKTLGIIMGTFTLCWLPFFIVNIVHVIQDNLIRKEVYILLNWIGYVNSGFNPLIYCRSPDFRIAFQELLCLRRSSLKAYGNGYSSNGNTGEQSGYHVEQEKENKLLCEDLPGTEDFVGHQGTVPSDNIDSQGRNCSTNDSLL
Method in brief: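 Intrinsic activity is relative to the per-experiment formoterol maximum, with pEC50 from a four-parameter logistic fit of cAMP levels quantified by AlphaScreen against standards. Cells (H292) got 300 μM rolipram for 10 min, then compound for 60 min at room temperature, 1% DMSO final.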

[2] = molecular target: T2, human muscarinic acetylcholine M3 receptor (M3-ACh) (Homo sapiens, UniProt P20309); test: Muscarinic 3 Receptor Binding Assay ([3H]NMS competition, SPA); details: [3H]NMS 0.1 nM, CHO-K1 cell membranes, 16 hours at room temperature; read-out: M3 pIC50 (converted)
T2 construct: expressed in transfected cells; host or cells: CHO-K1 (Chinese Hamster Ovary) cell membranes
T2 sequence (P20309 whole entry): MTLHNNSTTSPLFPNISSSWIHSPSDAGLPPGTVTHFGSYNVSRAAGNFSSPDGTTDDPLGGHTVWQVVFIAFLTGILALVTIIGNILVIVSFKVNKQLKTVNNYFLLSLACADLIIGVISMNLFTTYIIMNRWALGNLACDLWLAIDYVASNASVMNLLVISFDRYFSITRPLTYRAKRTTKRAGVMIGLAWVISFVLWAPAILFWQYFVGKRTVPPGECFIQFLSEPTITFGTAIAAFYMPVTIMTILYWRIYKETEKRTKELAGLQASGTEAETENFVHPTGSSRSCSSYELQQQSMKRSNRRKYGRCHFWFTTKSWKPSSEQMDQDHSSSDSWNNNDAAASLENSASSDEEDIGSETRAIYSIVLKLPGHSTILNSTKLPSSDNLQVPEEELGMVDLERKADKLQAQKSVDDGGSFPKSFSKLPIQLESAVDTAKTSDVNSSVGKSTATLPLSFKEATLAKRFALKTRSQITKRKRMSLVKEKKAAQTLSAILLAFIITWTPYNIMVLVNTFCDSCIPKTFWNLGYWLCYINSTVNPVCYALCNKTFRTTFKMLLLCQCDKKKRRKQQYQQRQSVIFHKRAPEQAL
Method in brief: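 Competition SPA binding of 0.1 nM [3H]NMS (quarter Kd) to membranes from CHO-K1 cells expressing human M3, in 20 mM HEPES pH 7.4, 5 mM MgCl2, 1% DMSO. Incubated 16 h at room temperature; non-specific binding with 1 µM atropine. pIC50 from 50% reduction of specific binding.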

Row | Compound | EC50 [1] [nM] | β2 Intrinsic activity [1] | IC50 [2] [nM]
1 | CCc1cc(C(=O)N2CCOC3(CCN(Cc4cc(F)cc(CCNC[C@H](O)c5ccc(O)c6[nH]c(=O)sc56)c4)CC3)C2)cs1 [Example 93, (R)-7-(2-(3-((4-(5-Ethylthiophene-3-carbonyl)-1-oxa-4,9-diazaspiro[5.5]undecan-9-yl)methyl)-5-fluorophenethylamino)-1-hydroxyethyl)-4-hydroxybenzo[d]thiazol-2(3H)-one ditrifluoroacetate] | 2.51 | 0.8 | 2.51
2 | Cc1nc(C(=O)N2CCOC3(CCN(CCOc4cccc(CNC[C@H](O)c5ccc(O)c6[nH]c(=O)ccc56)c4)CC3)C2)cs1 [Example 94, (R)-8-Hydroxy-5-(1-hydroxy-2-(3-(2-(4-(2-methylthiazole-4-carbonyl)-1-oxa-4,9-diazaspiro[5.5]undecan-9-yl)ethoxy)benzylamino)ethyl)quinolin-2(1H)-one ditrifluoroacetate] | 1260 | 0.7 | 12.6
3 | Cc1nc(C(=O)N2CCOC3(CCN(CCCOc4cccc(CNC[C@H](O)c5ccc(O)c6[nH]c(=O)ccc56)c4)CC3)C2)cs1 [Example 95, (R)-8-Hydroxy-5-(1-hydroxy-2-(3-(3-(4-(2-methylthiazole-4-carbonyl)-1-oxa-4,9-diazaspiro[5.5]undecan-9-yl)propoxy)benzylamino)ethyl)quinolin-2(1H)-one ditrifluoroacetate] | > 3200 | NV* (inactive up to a max concentration of 3.2 μM of test compound) | 1.58
4 | Cc1nc(C(=O)N2CCOC3(CCN(Cc4cccc(CNC[C@H](O)c5ccc(O)c6[nH]c(=O)ccc56)c4)CC3)C2)cs1 [Example 96, (R)-8-Hydroxy-5-(1-hydroxy-2-(3-((4-(2-methylthiazole-4-carbonyl)-1-oxa-4,9-diazaspiro[5.5]undecan-9-yl)methyl)benzylamino)ethyl)quinolin-2(1H)-one ditrifluoroacetate] | > 3200 | NV* (inactive up to a max concentration of 3.2 μM of test compound) | 0.251
5 | Cc1nc(C(=O)N2CCOC3(CCN(CCOc4cc(C)c(CNC[C@H](O)c5ccc(O)c6[nH]c(=O)ccc56)cc4C)CC3)C2)cs1 [Example 97, (R)-5-(2-(2,5-Dimethyl-4-(2-(4-(2-methylthiazole-4-carbonyl)-1-oxa-4,9-diazaspiro[5.5]undecan-9-yl)ethoxy)benzylamino)-1-hydroxyethyl)-8-hydroxyquinolin-2(1H)-one ditrifluoroacetate] | > 3160 | 1.5 | 6.31
6 | Cc1nc(C(=O)N2CCOC3(CCN(CCc4ccc(CNC[C@H](O)c5ccc(O)c6[nH]c(=O)ccc56)s4)CC3)C2)cs1 [Example 98, (R)-8-Hydroxy-5-(1-hydroxy-2-((5-(2-(4-(2-methylthiazole-4-carbonyl)-1-oxa-4,9-diazaspiro[5.5]undecan-9-yl)ethyl)thiophen-2-yl)methylamino)ethyl)quinolin-2(1H)-one ditrifluoroacetate] | 2000 | 0.4 | 1.26
7 | CCc1cc(C(=O)N2CCOC3(CCN(Cc4ccc(F)c(CCNC[C@H](O)c5ccc(O)c6[nH]c(=O)sc56)c4)CC3)C2)cs1 [Example 99, (R)-7-(2-(5-((4-(5-Ethylthiophene-3-carbonyl)-1-oxa-4,9-diazaspiro[5.5]undecan-9-yl)methyl)-2-fluorophenethylamino)-1-hydroxyethyl)-4-hydroxybenzo[d]thiazol-2(3H)-one ditrifluoroacetate] | 7.94 | 0.8 | 1.58
8 | CCc1cc(C(=O)N2CCOC3(CCN(Cc4cc(CCNC[C@H](O)c5ccc(O)c6[nH]c(=O)sc56)ccc4F)CC3)C2)cs1 [Example 100, (R)-7-(2-(3-((4-(5-Ethylthiophene-3-carbonyl)-1-oxa-4,9-diazaspiro[5.5]undecan-9-yl)methyl)-4-fluorophenethylamino)-1-hydroxyethyl)-4-hydroxybenzo[d]thiazol-2(3H)-one ditrifluoroacetate] | 5.01 | 0.9 | 1.58
9 | CC(C)c1nc(C(=O)N2CCOC3(CCN(CCCCCCSCCNC[C@H](O)c4ccc(O)c5[nH]c(=O)sc45)CC3)C2)cs1 [Example 101, (R)-4-Hydroxy-7-(1-hydroxy-2-(2-(6-(4-(2-isopropylthiazole-4-carbonyl)-1-oxa-4,9-diazaspiro[5.5]undecan-9-yl)hexylthio)ethylamino)ethyl)benzo[d]thiazol-2(3H)-one formate] | 158 | 1 | 0.316
10 | CC(C)c1nc(C(=O)N2CCOC3(CCN(CCCCCC(C)(C)CNC[C@H](O)c4ccc(O)c5[nH]c(=O)sc45)CC3)C2)cs1 [Example 102, (R)-4-Hydroxy-7-(1-hydroxy-2-(7-(4-(2-isopropylthiazole-4-carbonyl)-1-oxa-4,9-diazaspiro[5.5]undecan-9-yl)-2,2-dimethylheptylamino)ethyl)benzo[d]thiazol-2(3H)-one formate] | 200 | 0.9 | 1
11 | CC(C)c1nc(C(=O)N2CCOC3(CCN(CCCCCCCC(C)(C)CNC[C@H](O)c4ccc(O)c5[nH]c(=O)sc45)CC3)C2)cs1 [Example 103, (R)-4-Hydroxy-7-(1-hydroxy-2-(9-(4-(2-isopropylthiazole-4-carbonyl)-1-oxa-4,9-diazaspiro[5.5]undecan-9-yl)-2,2-dimethylnonylamino)ethyl)benzo[d]thiazol-2(3H)-one formate] | 251 | 1 | 1
12 | Cc1cc(C(=O)N2CCOC3(CCN(CCOc4ccc(CNC[C@H](O)c5ccc(O)c6[nH]c(=O)sc56)cc4)CC3)C2)cs1 [Example 104, (R)-4-Hydroxy-7-(1-hydroxy-2-(4-(2-(4-(5-methylthiophene-3-carbonyl)-1-oxa-4,9-diazaspiro[5.5]undecan-9-yl)ethoxy)benzylamino)ethyl)benzo[d]thiazol-2(3H)-one formate] | 79.4 | 0.9 | 3.16
13 | Cc1cc(C(=O)N2CCOC3(CCN(CCCCCCCCCNC[C@H](O)c4ccc(O)c5[nH]c(=O)sc45)CC3)C2)cs1 [Example 105, (R)-4-Hydroxy-7-(1-hydroxy-2-(9-(4-(5-methylthiophene-3-carbonyl)-1-oxa-4,9-diazaspiro[5.5]undecan-9-yl)nonylamino)ethyl)benzo[d]thiazol-2(3H)-one formate] | 15.8 | 0.8 | 0.126
14 | O=C(c1nc2ccccc2s1)N1CCOC2(CCN(CCOc3ccc(CNC[C@H](O)c4ccc(O)c5[nH]c(=O)sc45)cc3)CC2)C1 [Example 106, (R)-7-(2-(4-(2-(4-(Benzo[d]thiazole-2-carbonyl)-1-oxa-4,9-diazaspiro[5.5]undecan-9-yl)ethoxy)benzylamino)-1-hydroxyethyl)-4-hydroxybenzo[d]thiazol-2(3H)-one formate] | 100 | 0.8 | 200
15 | O=C(c1nc2ccccc2s1)N1CCOC2(CCN(CCCCCCCCCNC[C@H](O)c3ccc(O)c4[nH]c(=O)sc34)CC2)C1 [Example 107, (R)-7-(2-(9-(4-(Benzo[d]thiazole-2-carbonyl)-1-oxa-4,9-diazaspiro[5.5]undecan-9-yl)nonylamino)-1-hydroxyethyl)-4-hydroxybenzo[d]thiazol-2(3H)-one formate] | 39.8 | 0.9 | 6.31
16 | CC(C)c1nc(C(=O)N2CCOC3(CCN(CCOc4ccc(CNC[C@H](O)c5ccc(O)c6[nH]c(=O)sc56)cc4)CC3)C2)cs1 [Example 108, (R)-4-Hydroxy-7-(1-hydroxy-2-(4-(2-(4-(2-isopropylthiazole-4-carbonyl)-1-oxa-4,9-diazaspiro[5.5]undecan-9-yl)ethoxy)benzylamino)ethyl)benzo[d]thiazol-2(3H)-one formate] | 126 | 0.9 | 3.98
17 | CC(C)c1nc(C(=O)N2CCOC3(CCN(CCCCCCCCCNC[C@H](O)c4ccc(O)c5[nH]c(=O)sc45)CC3)C2)cs1 [Example 109, (R)-4-Hydroxy-7-(1-hydroxy-2-(9-(4-(2-isopropylthiazole-4-carbonyl)-1-oxa-4,9-diazaspiro[5.5]undecan-9-yl)nonylamino)ethyl)benzo[d]thiazol-2(3H)-one formate] | 7.94 | 0.9 | 0.2
18 | Cc1ccc(C(=O)N2CCOC3(CCN(CCOc4ccc(CNC[C@H](O)c5ccc(O)c6[nH]c(=O)sc56)cc4)CC3)C2)s1 [Example 110, (R)-4-Hydroxy-7-(1-hydroxy-2-(4-(2-(4-(5-methylthiophene-2-carbonyl)-1-oxa-4,9-diazaspiro[5.5]undecan-9-yl)ethoxy)benzylamino)ethyl)benzo[d]thiazol-2(3H)-one formate] | 63.1 | 0.8 | 20
19 | Cc1ccc(C(=O)N2CCOC3(CCN(CCCCCCCCCNC[C@H](O)c4ccc(O)c5[nH]c(=O)sc45)CC3)C2)s1 [Example 111, (R)-4-Hydroxy-7-(1-hydroxy-2-(9-(4-(5-methylthiophene-2-carbonyl)-1-oxa-4,9-diazaspiro[5.5]undecan-9-yl)nonylamino)ethyl)benzo[d]thiazol-2(3H)-one formate] | 31.6 | 0.8 | 0.794
